Values quoted from earlier work as cited in patent publication US8609722B2, “Anesthetic composition for topical administration comprising lidocaine, prilocaine and tetracaine” (priority 2003, dated 2013).
Where a name gives a salt, the structure may show the parent alone.

What was measured:
erythrocyte heme protein = settings: the very young may be more susceptible

Question: With `CCCNC(C)C(=O)Nc1ccccc1C` (centres unmarked) [prilocaine hydrochloride] as the compound, how does the solubility in water read?
Answer: readily soluble in water

Question: What about the “dose above which symptoms of methemoglobinaemia usually occur” value (erythrocyte heme protein) of the same compound?
Answer: exceed 8 mg per kg body-weight
